Test results published in patent US12410160B2 (Gilead Sciences, Inc., priority 2021, dated 2025).
Read-outs that look alike come from different tables or passages of the source.

Legend:
human KHK-C = human KHK-C (Homo sapiens (Human), UniProt P50053); experiment: KHK Biochemical Assay (IC50), ADP-Glo, KHK-C; conditions: ADP-Glo; average of at least two separate assays
Outline: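 Luminescent ADP-Glo read-out of ADP made by His-tagged KHK (BL21 (DE3) expression, Ni-NTA). Enzyme and compound sat together 30 min before ATP/fructose addition, then reacted 4 h at RT in Hepes pH 7.4 buffer with KCl, MgCl2, Triton-X. Quench 1 h, detection 1 h.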

HepG2 cells = experiment: F1P Cell-Based Assay (EC50), 13C6-fructose-1-phosphate in HepG2 cells (cell culture medium or 50% human plasma); conditions: Homo sapiens
human OATP1B1 [1] = target: T1, human OATP1B1 (Homo sapiens (Human), UniProt Q9Y6L6); experiment: In Vitro Inhibition Assessment with Human OATP1B1 Transporter; assay type: in vitro ADME; conditions: HEK293-OATP1B1 cells, probe substrate pravastatin
Outline: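 Pravastatin uptake was measured by LC-MS/MS after a 5 min exposure with inhibitor, following a 15 min inhibitor preincubation, in transfected versus mock HEK293 cells. Transport activity was derived as (transfected − mock) with compound over the same difference with solvent. IC50 is the concentration halving maximal activity; final DMSO was 0.4%.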

human OATP1B1 [2] = target: T1, human OATP1B1; experiment: In Vitro Substrate Assessment with Human OATP1B1 Transporter; assay type: in vitro ADME; conditions: HEK293-OATP1B1 vs mock cells; substrate if uptake ≥2-fold of mock and decreased by ≥30% with known OATP inhibitor
Excerpt: In Vitro Substrate Assessment with Human OATP1B1 and OATP1B3 Transporters
The purpose of this assay was to assess whether test articles (TAs), were substrates for the hepatic uptake transporters organic anion transporting polypeptide (OATP) 1B1 (SLCO1B1) and 1B3 (SLCO1B3) using non-transfected (Mock) and transfected human embryonic kidney (HEK293) cells. […] On assay day, media were removed from the assay plates and cells were washed with Hanks' Balanced Salt Solution (HBSS Buffer) (Corning, Cat. #21-023-CV). Cells were preincubated with HBSS buffer with or without known OATP inhibitors for 30 minutes. […] The incubation period was 2 minutes. Cells were then washed three times with ice cold HBSS buffer and then were immediately extracted with methanol:water (70:30 v:v) containing internal standard labetolol (30 nM). The supernatants were evaporated to dryness on injection plates and reconstituted in 80% water containing 20% acetonitrile and 0.1% formic acid for analysis by liquid chromatography with tandem mass spectrometry (LC-MS-MS).
The rate of uptake into cells was determined by the following formula: Rate of uptake=(A*B)/(C*D)
• A: concentration of compound in cell lysate • B: volume of sample • C: Incubation time • D: millions of cells in sample
A TA was considered a substrate for OATP transporter if: (1) the rate of uptake in the transporter transfected cells was ≥2-fold of the rate of uptake in the mock cells; and (2) the rate of uptake in the transporter transfected cells was decreased by ≥30% in the presence of a known OATP inhibitor.

[3] = target: KHK-C expressed in NRK-52E cells (Homo sapiens (Human), UniProt P50053); experiment: KHK-C Cell-based Assay (EC50), NRK CTG, fructose-mediated ATP-depletion
[4] = pKa analysis by capillary electrophoresis (pKa PRO Analyzer, co-solvent method); assay type: physicochemical; conditions: methanol/aqueous co-solvent buffers, co-solvent method (60% to 30% methanol buffers)
Outline: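 Capillary electrophoresis by the co-solvent method, with 100 μM compound and 1% DMSO in 2 mM HCl or NaOH at 60% methanol.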

T1 sequence (Q9Y6L6 whole entry): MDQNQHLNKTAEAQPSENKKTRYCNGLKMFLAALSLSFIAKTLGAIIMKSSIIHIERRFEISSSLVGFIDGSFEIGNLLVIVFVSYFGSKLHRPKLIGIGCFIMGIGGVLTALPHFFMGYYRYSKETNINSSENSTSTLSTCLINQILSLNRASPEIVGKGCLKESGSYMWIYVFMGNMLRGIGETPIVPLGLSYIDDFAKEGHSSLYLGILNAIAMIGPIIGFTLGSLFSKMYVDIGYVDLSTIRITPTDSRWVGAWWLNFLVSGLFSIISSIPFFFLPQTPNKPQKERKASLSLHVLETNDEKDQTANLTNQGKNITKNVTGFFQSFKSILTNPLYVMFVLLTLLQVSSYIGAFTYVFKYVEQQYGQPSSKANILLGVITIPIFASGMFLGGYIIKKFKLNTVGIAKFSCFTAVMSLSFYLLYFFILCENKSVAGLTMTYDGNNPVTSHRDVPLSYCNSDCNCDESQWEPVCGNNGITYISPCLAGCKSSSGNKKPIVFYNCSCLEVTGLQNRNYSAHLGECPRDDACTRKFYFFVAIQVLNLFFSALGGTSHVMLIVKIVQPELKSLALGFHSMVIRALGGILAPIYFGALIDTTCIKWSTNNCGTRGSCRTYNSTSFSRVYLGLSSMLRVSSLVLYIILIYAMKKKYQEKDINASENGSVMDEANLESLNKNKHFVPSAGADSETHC
Chain of KHK-C expressed in NRK-52E cells (P50053 whole entry): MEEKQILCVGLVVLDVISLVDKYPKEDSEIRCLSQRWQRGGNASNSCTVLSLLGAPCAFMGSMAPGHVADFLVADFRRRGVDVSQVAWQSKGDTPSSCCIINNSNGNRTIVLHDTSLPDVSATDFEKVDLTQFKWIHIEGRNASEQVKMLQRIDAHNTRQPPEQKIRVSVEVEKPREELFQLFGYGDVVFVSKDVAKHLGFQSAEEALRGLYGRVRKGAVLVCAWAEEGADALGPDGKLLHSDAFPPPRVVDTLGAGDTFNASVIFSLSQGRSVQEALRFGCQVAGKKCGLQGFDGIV
Chain of human KHK-C (P50053 whole entry): as above

| IC50 (human KHK-C) [nM] | EC50 (HepG2 cells; HepG2, HepG2 cells, 50% human plasma, read-out: F1P 50% HP EC50) [nM] | EC50 (HepG2 cells; HepG2, read-out: F1P 10% FBS EC50, HepG2 cells, cell culture medium (10% FBS)) [nM] | IC50 (human OATP1B1 [1]) [nM] | OATP1B1 Substrate (human OATP1B1 [2]) | EC50 [3] [nM] | pKa ([4]; pH range 1.7-11.2, read-out: 1st pKa) | pKa ([4]; pH range 1.7-11.2, read-out: 2nd pKa) | Structure (SMILES) |
| --- | --- | --- | --- | --- | --- | --- | --- | --- |
| 5 | 47.3 | 36.7 | 1740 | YES | 39.7 |  |  | C[C@H]1[C@H](O)CN1c1nc(-c2ccc3c(c2)OCCNC3=O)c2c(n1)C(F)(F)CC2 [Example 166, 8-(7,7-difluoro-2-((2S,3R)-3-hydroxy-2-methylazetidin-1-yl)-6,7-dihydro-5H-cyclopenta[d]pyrimidin-4-yl)-3,4-dihydrobenzo[f][1,4]oxazepin-5(2H)-one] |
|  |  |  | 5570 | YES | 249 | 3.54 | 9.45 | C[C@H]1[C@H](O)CN1c1nc2c(c(-c3cccc(S(N)(=O)=O)c3)n1)CCC2 [Example 209, 3-[2-[(2S,3R)-3-hydroxy-2-methyl-azetidin-1-yl]-6,7-dihydro-5H-cyclopenta[d]pyrimidin-4-yl]benzenesulfonamide] |
|  |  |  | 1190 | YES |  |  |  | C[C@H]1CCN1c1nc(N2C[C@@H]3[C@@H](CC(=O)O)[C@@H]3C2)cc(C(F)(F)F)n1 [Reference Compound 1, reference compound] |
|  |  |  | 267 | YES |  |  |  | C[C@H]1CCN1c1nc(N2CC[C@H](CC(=O)O)C2)cc(C(F)(F)F)c1C#N [Reference Compound 2, 2-((R)-1-(5-cyano-6-((S)-2-methylazetidin-1-yl)-4-(trifluoromethyl)pyridin-2-yl)pyrrolidin-3-yl)acetic acid, reference compound] |
|  |  |  | 720 | YES |  |  |  | C[C@H]1CCN1c1nc(N2C[C@@H]3[C@@H](CC(=O)O)[C@@H]3C2)c2c(n1)C(F)(F)CC2 [Reference Compound 5, reference compound] |
|  |  |  | 960 | YES |  |  |  | C[C@H]1CCN1c1nc(N2C[C@@H]3[C@@H](CC(=O)O)[C@@H]3C2)c2c(n1)C(F)(F)CCC2 [Reference Compound 6, reference compound] |
